What was measured:
[1] = test system: human cytochrome c protein; experiment: ELISA protein level; type: cell-based; details: 13 μM, 48 h, MDA-MB-231; control 0.295 ng/mL
Method: (§1) Dissection of the compound’s proapoptotic activity was proceeded through gene expression analysis for key genes, controlling apoptosis pathway, as well as protein level determination. Following 8b treatment for 48 h, alterations within MDA-MB-231/breast cancer cell expression of Bcl-2, Bax, caspase-3, -8, and -9 genes, as well as cytochrome c and class-III β-tubulin proteins levels were determined using real-time polymerase chain reaction (RT-PCR) or ELISA technique, respectively. Typically, Bcl-2, Bax, caspases, and cytochrome c proteins contributes within the regulation of apoptotic signaling. Acting as apoptotic activator (Bax) or inhibitor (Bcl-2), the Bcl-2 family proteins play their significant role in apoptosis. The caspases family are cysteine proteases being classified as either executioners; caspase-3, -6, or -7 or initiators; caspase-8 and -9 [36]. Regrading caspase-8, its activation is proceeded through extrinsic death-receptor dependent apoptotic pathway, while, caspase-9 activation is within the event of intrinsic mitochondrial cytochrome c leakage. Additionally, participation of activated caspase-3 is to be essential for caspase-8 activation. […]
Quantikine® Colorimetric Sandwich-ELISA Kit (Cat.#: DCTC0; R&D Systems, Minneapolis, MN, USA) was used for quantitating the targeted human cytochrome c protein through immunoassay protocol. […]

[2] = test system: MDA-MB-231/breast cancer cell line; experiment: Apoptosis rate analysis, Annexin-V/FACS; type: cell-based, human; details: 13 µM, 48 h
Text: Using flow cytometry, apoptosis rate analysis was proceeded through staining the cell surface-translocating phosphatidylserine with Annexin-V fluorescent conjugate, the calcium-dependent phospholipid binding protein [32]. However, cell cycle analysis was achieved using propidium iodine fluorescent dye to stoichiometrically stain cell DNA contents allowing quantitation and identification of all cell phase rates; G0-G1, S, G2/M, and pre-G1 [33, 34]. […] For identifying the mode of cell death promoted by 8b within MDA-MB-231/breast cancer cells, apoptosis rate analysis was performed following 48 h exposure time. […] Moreover, the average proportion of Annexin-V stained positive cells (total apoptotic cells) elevated from 1.72% within untreated cells to 18.93% in treated ones (p < 0.001). […] The above provided findings are supported by the previous cell cycle analysis confirming the potentiality of 8b as promising anticancer agent.
Apoptotic assay and cell cycle analysis were proceeded according to previous literatures. In brief, cells were planted in 1.0 × 10^6 cells/flask density for 24 h. Subsequently, 8b was added at its IC50 value and incubated for 48 h. Following incubation, MDA-MB-231 cells were trypsinized, harvested, and fixed according to information cited within Annexin® V-FITC Detection Kit (Cat.#: K101-25, BioVision^TM, Milpitas, CA, USA), for quantifying cell’s DNA contents being treated with 8b relative to control sample using propidium iodide stain (Cat.#: ab139418; Abcam^TM, Cambridge, MA, USA). Finally, flow cytometry analysis was done using BD-FACSCalibur® cell analyzer platform (Becton Dickinson-Biosciences-SG^TM, Singapore, Thailand) to estimate which cell cycle phase, the treated cells would be arrested in, as well as computing the percentage of apoptotic cells.

[3] = test system: class-III β-tubulin; experiment: ELISA protein level; type: cell-based, human; details: 48 h
Method: as §1

[4] = test system: MDCK/kidney non-cancerous cells; experiment: MTT-cell proliferation assay on non-cancerous cell line; type: cell-based; details: 48 h drug exposure, mean ± SEM
Text: The potential anti-cancer activity of all fourteen final synthesized compounds was investigated through MTT cytotoxic assay against two different human solid cancerous cell lines; A549/lung and MDA-MB-231/breast adenocarcinoma. The adopted cell-proliferation assay assessed % cell viability in relation to the reducing activity of cellular NADPH-dependent cellular oxidoreductases on tetrazolium dye, MTT [2,5-diphenyl-3-(4,5-dimethylthiazol-2-yl)tetrazolium bromide salt], for furnishing an easily quantified insoluble chromogenic formazan. For each drug concentration, 0.1, 1, 10, and 100 μM, the % cell-viability was estimated relative to negative control following a complete 48 h of drug treatment. Both 5-fluorouracil (5-FU) and doxorubicin (DOX) were set as positive index comparators. Moreover, the safety profile of the synthesized compounds was further investigated by examining their in-vitro cytotoxicity on non-cancerous cell line; MDCK/kidney cells.
Evaluating the cytotoxicity of tested compounds on two cancer cell lines (A549/lung and MDA-MB-231/breast adenocarcinoma) and non-cancerous (MDCK/kidney cells) was performed while adopting the formerly described method with small alterations. Cancer cell lines were propagated within Dulbecco’s Modified Eagle Medium-High Glucose (Cat.#: P0103; DMEM_High Glucose with Na.Pyruvate and stable Glutamine, Biowest^TM, Nuaillé, France), while MDA-MB-231 cells were propagated within RPMI-1640 L-Glutamine medium (Cat.#:12-604F; Lonza-Verviers SPRL^TM, Verviers, Belgium). The culturing media were supplemented via 1% antibiotic-antimycotic 100X (Cat.#: L0010; Biowest^TM, Nuaillé, France) and 10% fetal bovine serum (FBS) (Cat.#: EU-000-H; Seralab^TM, West Sussex, UK). Cells were seeded as triplicates within 96-well plate, at 1 × 10^4 cells per well density, after being counted and viability checked using the trypan blue staining solution (Cat.# ab233465; Abcam^TM, Cambridge, MA, USA). Seeded cells were permitted to adhere for 24 h under 5% CO2 and at 37 °C incubating conditions. The assigned compounds were dissolved in 500 µL DMSO affording the stock solution (100 mM) being ready for more diluting within the whole medium to obtain the compound’s final concentrations; 0.1, 1, 10, 100 µM for cell treatments. […] Following 24 h compound-cell treatment, the medium was substituted by fresh one and cells were permitted to develop for 48 h. At four hours prior the end of incubation, 10 μL MTT Sigma-Aldrich^TM (5 mg/mL in PBS 1X without magnesium and calcium; Cat.# 17-516F, Lonza-Verviers^TM, Basel, Switzerland) were added to all wells. Following the complete 48 h incubation, 100 μL DMSO was all added to all wells where they were subsequently centrifuged at 4000 rpm for 5 min allowing the formazan crystals of formazan to precipitate. Color was established and intensities were recorded at 490 nm using Synergy-Neo2® Hybrid MultiMode Plate Reader (BioTek^TM, Winooski, VT, USA), while subtracting the multi-well plates background absorbance at 690 nm. Percentage cell viability was estimated using the subsequent formula: % cell-viability = (average absorbance of treated wells/average absorbance of controls) × 100.

`CCCc1ccc(-c2nn(-c3ccccc3)cc2C=NNC(=O)c2cc3ccccc3[nH]2)cc1` [Compound 8b, N′-((1-phenyl-3-(4-propylphenyl)-1H-pyrazol-4-yl)methylene)-1H-indole-2-carbohydrazide] was tested, and the cytochrome c level [1] was 0.675 ng/mL, the influence on necrosis [2] was “no influence on the necrosis” and the “early apoptotic cell population (LR quadrant)” value ([2]; quadrant assignment assumed) was 5.09%. For the same molecule, the “late apoptotic cell population (UR quadrant)” value ([2]; quadrant assignment assumed) was 12.02%, the “necrotic cell population (UL quadrant)” value ([2]; quadrant assignment assumed) was 1.82% and the “Annexin-V stained positive cells (total apoptotic cells)” value ([2]; untreated 1.72%) was 18.93%. The “class-III β-tubulin level” value ([3]; 13 μM, MDA-MB-231, control 0.73 ng/mL) was 0.23 ng/mL, the inhibition at 13 µM ([3]; Homo sapiens, MDA-MB-231, vs control) was 68.4% and the IC50 [4] was 92.75 ± 0.43 µM. For the same molecule, the IC50 ([4]; Canis lupus familiaris, MDCK, 48 h) was 92 µM.

Source: paper PMC7912796, “Design, Synthesis, Anticancer Activity, and Solid Lipid Nanoparticle Formulation of Indole- and Benzimidazole-Based Compounds as Pro-Apoptotic Agents Targeting Bcl-2 Protein” (Pharmaceuticals, 2021)
